Measurements reported in article PMC12715756 (ACS Chemical Neuroscience, 2025).

What was measured:
male Swiss CD-1 mice [1] = test: Horizontal locomotor activity (HLA); type: in vivo; details: for effect on horizontal locomotor activity: 2.5, 10, 25 mg/kg i.p., 120 min, ceiling effect at 25 mg/kg
Protocol: (§1) Male Swiss CD-1 mice (Janvier, Le Genest, France), weighing 30–35 g and aged 6–8 weeks, were used for HLA, thigmotaxis, CPP, and core body temperature experiments. Animals were housed under temperature-controlled conditions (22 ± 1 °C) with a 12 h light/dark cycle and had free access to food and water (standard laboratory diet, Panlab SL, Barcelona, Spain). Doses for HLA, thigmotaxis, CPP, and core body temperature experiments were calculated based on the free base form of each compound. For HTR experiments, male C57BL/6J mice (6–8 weeks old) were obtained from Jackson Laboratories (Bar Harbor, ME, USA) and housed up to four per cage with a reversed light-cycle (lights on at 1900 h, off at 0700 h). Food and water were provided ad libitum, except during behavioral testing. Testing was conducted between 1000 and 1830 h. Doses for HTR experiments were calculated based on the respective salt forms of the compounds.
A habituation phase was performed to reduce the stress and novelty associated with handling and injection. During this phase, which lasted for two consecutive days, mice received an intraperitoneal (ip) saline injection and were immediately placed into a black Plexiglas Open Field (OF) arena (25 × 25 × 40 cm) under low-light conditions and white noise for 30 min. On the test day, their horizontal locomotor activity (HLA) was measured. […] HLA was video monitored for 2 h, and a specific tracking software (Smart 3.0 Panlab, Barcelona, Spain) was used to measure their total traveled distance (in cm). Center Versus Periphery: The thigmotactic effects of the test compounds, widely considered as anxiety-like effects, were assessed through an OF test. Each mouse was individually placed in the center of an open-field arena (25 cm length × 25 cm width × 40 cm height). The time spent, in seconds, in the center (8 × 8 cm) or the periphery of the arena was monitored for 2 h (Smart 3.0 Panlab, Barcelona, Spain).

male Swiss CD-1 mice [2] = test: Conditioned place preference (CPP); type: in vivo; details: for rewarding effects (CPP preference score): 10 mg/kg i.p., compared to saline; for CPP preference score: lowest dose tested
Protocol: as §1
For this experiment, an apparatus with two distinct compartments, differing in tactile and visual cues, connected by a central corridor, was used. The conditioned place preference (CPP) procedure consisted of three phases: preconditioning, conditioning, and postconditioning. In the preconditioning phase (day 0), mice were placed in the middle of the corridor and allowed to freely explore both compartments for 15 min. The time spent in each compartment was recorded and monitored using specific tracking software (Smart 3.0 Panlab, Barcelona, Spain). In the conditioning phase (day 1–day 8), access to the corridor was closed. […] On alternate days, , mice received a saline i.p. injection and were placed in the other compartment for 30 min. Mice in the control group received a saline injection in every session. The compartments and sessions in which the drug was administered were randomized. In the postconditioning phase (test day), the same conditions as the preconditioning phase were reinstated. A preference score was determined by calculating the difference in time spent in the drug-paired compartment between the post- and preconditioning phases.

[3] = molecular target: T1, human organic cation transporter 1 (OCT1) (Homo sapiens, UniProt O15245); test: Uptake inhibition assay, [3H]MPP+ uptake in HEK293 cells
T1 sequence (O15245 1-554): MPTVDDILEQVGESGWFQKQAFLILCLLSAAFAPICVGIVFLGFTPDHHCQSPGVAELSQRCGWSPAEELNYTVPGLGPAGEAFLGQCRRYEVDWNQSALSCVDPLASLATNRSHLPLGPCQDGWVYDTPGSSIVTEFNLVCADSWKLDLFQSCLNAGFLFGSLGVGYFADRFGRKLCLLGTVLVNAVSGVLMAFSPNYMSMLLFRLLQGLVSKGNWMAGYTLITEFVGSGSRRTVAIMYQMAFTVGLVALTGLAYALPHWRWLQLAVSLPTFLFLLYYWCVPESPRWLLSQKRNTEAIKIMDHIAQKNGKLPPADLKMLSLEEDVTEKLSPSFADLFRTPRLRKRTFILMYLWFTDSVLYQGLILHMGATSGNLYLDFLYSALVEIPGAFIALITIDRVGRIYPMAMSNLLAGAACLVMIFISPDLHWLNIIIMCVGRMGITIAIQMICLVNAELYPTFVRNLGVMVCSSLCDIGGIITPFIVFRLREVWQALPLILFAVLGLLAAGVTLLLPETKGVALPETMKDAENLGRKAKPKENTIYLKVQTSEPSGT

SERT = SERT (Homo sapiens, UniProt P31645); test: Release (superfusion) assay, SERT mediated [3H]5-HT efflux; details: for Emax: read-out: Emax [95%-CI], SERT mediated [3H]5-HT efflux
[4] = Metabolic stability, substrate depletion in pooled human liver microsomes; details: for CLint scaled at 0.5 μM / half-life at 0.5 μM / microsomal CLint at 0.5 μM: human, pooled human liver microsomes; for clearance classification: pHLM
male Swiss CD-1 mice [5] = test: Open field test (thigmotaxis); type: in vivo; details: 10 mg/kg i.p., vs saline
Protocol: Male Swiss CD-1 mice (Janvier, Le Genest, France), weighing 30–35 g and aged 6–8 weeks, were used for HLA, thigmotaxis, CPP, and core body temperature experiments. Animals were housed under temperature-controlled conditions (22 ± 1 °C) with a 12 h light/dark cycle and had free access to food and water (standard laboratory diet, Panlab SL, Barcelona, Spain). Doses for HLA, thigmotaxis, CPP, and core body temperature experiments were calculated based on the free base form of each compound. […] Doses for HTR experiments were calculated based on the respective salt forms of the compounds.
A habituation phase was performed to reduce the stress and novelty associated with handling and injection. […] On the test day, their horizontal locomotor activity (HLA) was measured. […] HLA was video monitored for 2 h, and a specific tracking software (Smart 3.0 Panlab, Barcelona, Spain) was used to measure their total traveled distance (in cm). Center Versus Periphery: The thigmotactic effects of the test compounds, widely considered as anxiety-like effects, were assessed through an OF test. […] The time spent, in seconds, in the center (8 × 8 cm) or the periphery of the arena was monitored for 2 h (Smart 3.0 Panlab, Barcelona, Spain).

male Swiss CD-1 mice [6] = test: Core body temperature; type: in vivo; details: 10 mg/kg i.p., 22 ± 1 °C and 28 ± 1 °C, compared with MDMA and SDMA
Protocol: as §1
Changes in body temperature were measured by means of subcutaneously implanted temperature transponders (IPTT-300; Bio Medic Data Systems, Inc., DE, USA). Seven mice were used per group. […] Subsequently, core body temperature measures were taken for 1 h, every 10 min before administration, using a DAS-8007 Wireless Reader System (Bio Medic Data Systems, Inc.), to establish a baseline. […]

Chain of SERT (P31645 whole entry, the tested form may be a part): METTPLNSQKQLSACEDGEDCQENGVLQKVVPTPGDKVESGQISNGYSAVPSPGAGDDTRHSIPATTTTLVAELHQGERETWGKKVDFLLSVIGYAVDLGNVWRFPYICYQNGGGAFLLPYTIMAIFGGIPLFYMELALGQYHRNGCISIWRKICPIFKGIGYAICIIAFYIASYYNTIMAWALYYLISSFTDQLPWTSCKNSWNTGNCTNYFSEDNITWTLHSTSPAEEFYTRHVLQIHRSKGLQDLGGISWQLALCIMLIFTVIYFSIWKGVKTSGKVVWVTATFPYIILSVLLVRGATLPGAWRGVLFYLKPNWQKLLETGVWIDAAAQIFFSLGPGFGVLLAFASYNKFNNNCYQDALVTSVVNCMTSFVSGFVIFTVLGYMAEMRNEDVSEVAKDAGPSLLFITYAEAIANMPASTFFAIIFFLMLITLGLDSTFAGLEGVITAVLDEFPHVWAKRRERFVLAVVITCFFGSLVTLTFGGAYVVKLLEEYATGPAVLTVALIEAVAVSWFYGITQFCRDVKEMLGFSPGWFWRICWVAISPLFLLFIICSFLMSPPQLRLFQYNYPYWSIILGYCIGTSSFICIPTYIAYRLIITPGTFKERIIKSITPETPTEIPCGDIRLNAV

Row | Structure (SMILES) | effect on horizontal locomotor activity (male Swiss CD-1 mice [1]) | rewarding effects (CPP preference score) (male Swiss CD-1 mice [2]) | CPP preference score (male Swiss CD-1 mice [2]) | IC50 [3] [µM] | EC50 (SERT) [nM] | type of releaser at SERT (SERT) | Emax (SERT) [%] | CLint scaled at 0.5 μM [4] [mL/min/kg] | half-life at 0.5 μM [4] [min] | microsomal CLint at 0.5 μM [4] [µL/min/mg] | clearance classification [4] | efficacy at inducing locomotion, in comparison to SDMA and MDMA (male Swiss CD-1 mice [1]; 10 mg/kg i.p.) | time spent in the center of the arena (thigmotaxis) (male Swiss CD-1 mice [5]) | core body temperature changes (male Swiss CD-1 mice [6])
1 | CNC(C)Cc1ccc2c(c1)SCO2 (stereo not shown) [SDMA, 1-(1,3-benzoxathiol-5-yl)-N-methylpropan-2-amine] | induced hyperlocomotion | neither SDA nor SDMA induced significant rewarding effects | positive preference score at the same dose, it did not reach significance | 4.39 ± 2.84 | 180 | partial releasers | 71.5 | 8.4 | 71 | 9.8 | low clearance compounds |  |  | 
2 | CC(N)Cc1ccc2c(c1)SCO2 (stereo not shown) [SDA, 1-(1,3-benzoxathiol-5-yl)propan-2-amine] | induced hyperlocomotion | neither SDA nor SDMA induced significant rewarding effects | significant preference score | 3.65 ± 0.27 | 270 | partial releasers | 70.5 | 9.7 | 61 | 11.4 | low clearance compounds | significantly higher efficacy | significantly decreased the time spent in the center of the arena | significantly increased and prolonged core temperature changes
